Among the data in article PMC3855799 (PLoS ONE, 2013) are IC50 values, retold here.

Where “and” joins values, the source holds several entries; their conditions need not be identical. Equal entries are not always repeated.

Sequence of hNav1.7 alpha subunit (Q15858 1-1977 isoform Q15858-3): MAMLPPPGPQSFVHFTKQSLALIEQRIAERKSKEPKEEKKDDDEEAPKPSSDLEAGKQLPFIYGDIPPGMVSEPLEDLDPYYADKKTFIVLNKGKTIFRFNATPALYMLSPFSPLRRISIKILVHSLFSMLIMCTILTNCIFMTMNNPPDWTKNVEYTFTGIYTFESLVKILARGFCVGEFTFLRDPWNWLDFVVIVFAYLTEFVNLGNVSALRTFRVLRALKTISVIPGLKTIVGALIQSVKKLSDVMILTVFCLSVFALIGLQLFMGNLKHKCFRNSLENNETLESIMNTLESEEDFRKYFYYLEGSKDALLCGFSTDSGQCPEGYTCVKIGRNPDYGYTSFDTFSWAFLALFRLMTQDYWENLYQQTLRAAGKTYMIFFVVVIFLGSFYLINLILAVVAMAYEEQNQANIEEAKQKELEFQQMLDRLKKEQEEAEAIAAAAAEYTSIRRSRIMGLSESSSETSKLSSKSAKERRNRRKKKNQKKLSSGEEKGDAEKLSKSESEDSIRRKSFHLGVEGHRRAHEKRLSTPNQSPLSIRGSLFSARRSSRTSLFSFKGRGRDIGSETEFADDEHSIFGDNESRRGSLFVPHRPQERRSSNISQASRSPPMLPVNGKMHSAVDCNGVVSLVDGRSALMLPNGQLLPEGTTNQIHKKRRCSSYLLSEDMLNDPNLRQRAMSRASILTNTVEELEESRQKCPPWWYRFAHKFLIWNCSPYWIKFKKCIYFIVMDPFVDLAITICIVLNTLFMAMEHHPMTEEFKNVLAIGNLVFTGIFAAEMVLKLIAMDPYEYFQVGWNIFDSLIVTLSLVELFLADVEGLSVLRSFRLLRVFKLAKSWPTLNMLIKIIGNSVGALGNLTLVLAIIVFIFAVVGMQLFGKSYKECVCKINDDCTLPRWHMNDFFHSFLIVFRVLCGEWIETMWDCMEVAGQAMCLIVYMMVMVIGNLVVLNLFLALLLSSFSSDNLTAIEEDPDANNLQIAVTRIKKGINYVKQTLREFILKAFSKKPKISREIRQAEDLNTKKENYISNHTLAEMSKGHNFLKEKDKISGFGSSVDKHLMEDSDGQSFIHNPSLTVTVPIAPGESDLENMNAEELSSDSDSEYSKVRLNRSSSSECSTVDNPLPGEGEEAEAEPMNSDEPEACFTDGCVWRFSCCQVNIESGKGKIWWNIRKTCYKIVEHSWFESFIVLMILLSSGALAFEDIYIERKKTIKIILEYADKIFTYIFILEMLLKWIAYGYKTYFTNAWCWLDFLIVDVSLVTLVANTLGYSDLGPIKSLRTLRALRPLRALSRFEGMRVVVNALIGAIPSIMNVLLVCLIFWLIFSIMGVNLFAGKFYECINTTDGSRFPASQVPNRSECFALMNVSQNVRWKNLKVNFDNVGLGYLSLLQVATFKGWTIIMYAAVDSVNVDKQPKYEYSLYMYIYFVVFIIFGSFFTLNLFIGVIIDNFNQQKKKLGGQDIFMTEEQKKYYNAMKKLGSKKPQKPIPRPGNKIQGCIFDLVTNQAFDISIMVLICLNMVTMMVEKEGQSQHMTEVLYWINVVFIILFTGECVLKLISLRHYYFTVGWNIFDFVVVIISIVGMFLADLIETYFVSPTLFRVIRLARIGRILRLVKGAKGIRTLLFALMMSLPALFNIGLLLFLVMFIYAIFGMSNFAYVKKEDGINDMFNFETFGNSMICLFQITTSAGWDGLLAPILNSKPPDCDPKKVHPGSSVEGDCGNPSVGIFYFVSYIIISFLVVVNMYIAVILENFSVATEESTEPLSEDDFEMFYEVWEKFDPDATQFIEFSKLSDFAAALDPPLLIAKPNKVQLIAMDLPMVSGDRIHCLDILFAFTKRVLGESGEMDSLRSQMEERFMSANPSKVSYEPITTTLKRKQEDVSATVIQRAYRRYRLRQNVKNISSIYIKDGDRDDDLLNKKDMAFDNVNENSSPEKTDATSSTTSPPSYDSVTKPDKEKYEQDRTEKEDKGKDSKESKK

This test addresses hNav1.7 alpha subunit (Homo sapiens, UniProt Q15858). As to the kind of experiment: Electrophysiology using Sophion QPatch: inhibition of hNav1.7 currents. It counts as cell-based. The following applies: QPatch 16X whole cell voltage clamp, hNav1.7 alpha HEK 293; holding -80 mV, -120mV for 100ms, step to 0mV; peak inward current; cumulative doses 100pM to 10µM, 10 minutes per dose; extracellular buffer pH 7.4 + 0.1% BSA; n = 9-11 (given for HwTx-IV(acid)); spread type not stated; read-out: IC50 on Nav1.7. How it is done:
Electrophysiology using Sophion QPatch^TM
hNav1.7 alpha HEK 293 cell line (NM_002977.2) was obtained from Millipore and cells were cultured in a 50/50 mix of DMEM and Hams F-12 growth media supplemented with 10% FBS. Cells were passaged by Detachin (Genlantis) treatment (5 minutes), seeded 48-72 hours prior to experiments and used between passage 5 and 10. Cells were harvested at 70% confluency and resuspended by trituration in 8ml of Ex-cell ACF CHO serum free media (Sigma) + 20mM HEPES giving a cell density of 2-3x10^6cells/ml.
Solutions for electrophysiology: Extracellular solution contained (in mM) NaCl (145), KCl (2), CaCl2 (2), MgCl2 (1), HEPES (10), pH 7.4 with NaOH, osmolarity adjusted to 300 mOsm with sucrose. Intracellular solution contained (in mM), CsF (140), NaCl (10), EGTA (1), HEPES (10), pH 7.2 with CsOH, osmolarity adjusted to 325 mOsm with sucrose.
Serial dilutions were made in extracellular buffer + 0.1% BSA. Cumulative dose response curves were constructed with doses of 1e-10 to 1e-5M (100pM to 10µM). Each dose was applied for 10 minutes with 3x5µl compound additions spaced 2 seconds apart (Note that complete solution exchange is achieved with volumes of ~2µl).
Nav1.7 currents were measured using the automated electrophysiology platform Qpatch 16X (Sophion) in single hole configuration. […] To measure Nav1.7 currents, membrane potential was held at -80 mV then stepped to -120mV for 100ms to remove fast inactivation, followed by a step to 0mV for 10ms to activate Nav1.7 then returned to -120mV for 100ms. This voltage protocol was repeated at a rate of 0.2Hz with a the membrane potential held at -80mV between sweeps. Data were sampled at 10kHz and filtered using a 4 pole Bessel filter at 3kHz. P/N leak subtraction was utilized with a leak sweep of -10%. Series resistance was compensated 75% as standard. Liquid junction potentials were not corrected.
Peak inward current at 0mV was normalised to cell capacitance (pA/pF). […]
A general note: Patch clamp records ionic current or voltage across a cell membrane.
For orientation: IC50 means the concentration that inhibits the measured activity by half. With `CC[C@H](C)[C@H](NC(=O)[C@H](CCC(N)=O)NC(=O)[C@H](Cc1ccc(O)cc1)NC(=O)[C@H](CCCCN)NC(=O)[C@@H]1CSSC[C@@H]2NC(=O)[C@H](CCC(N)=O)NC(=O)[C@H](CC(=O)O)NC(=O)[C@H](CC(N)=O)NC(=O)[C@H](CO)NC(=O)[C@@H]3CCCN3C(=O)[C@H](CC(N)=O)NC(=O)[C@@H]3CSSC[C@H](NC(=O)[C@H](C(C)C)NC(=O)[C@H](CC(C)C)NC(=O)[C@H](CCCCN)NC(=O)[C@H](CO)NC(=O)[C@H](CO)NC(=O)[C@H](CCCCN)NC(=O)[C@H](CSSC[C@H](NC(=O)[C@@H](N)CCC(=O)O)C(=O)N[C@@H](CC(C)C)C(=O)N[C@@H](CCC(=O)O)C(=O)N[C@@H]([C@@H](C)CC)C(=O)N[C@@H](Cc4ccccc4)C(=O)N[C@@H](CCCCN)C(=O)N[C@@H](C)C(=O)N3)NC2=O)C(=O)N[C@@H](CO)C(=O)N[C@@H](CCCNC(=N)N)C(=O)N[C@@H](CCCCN)C(=O)N[C@@H]([C@@H](C)O)C(=O)N[C@@H](CCCNC(=N)N)C(=O)N[C@@H](Cc2c[nH]c3ccccc23)C(=O)N1)C(=O)O` [HwTx-IV(acid)], the IC50 is 463 to 727 nM and 727 nM and 463 nM. In the case of `CC[C@H](C)[C@H](NC(=O)[C@H](CCC(N)=O)NC(=O)[C@H](Cc1ccc(O)cc1)NC(=O)[C@H](CCCCN)NC(=O)[C@@H]1CSSC[C@@H]2NC(=O)[C@H](CCC(N)=O)NC(=O)[C@H](CC(=O)O)NC(=O)[C@H](CC(N)=O)NC(=O)[C@H](CO)NC(=O)[C@@H]3CCCN3C(=O)[C@H](CC(N)=O)NC(=O)[C@@H]3CSSC[C@H](NC(=O)[C@H](C(C)C)NC(=O)[C@H](CC(C)C)NC(=O)[C@H](CCCCN)NC(=O)[C@H](CO)NC(=O)[C@H](CO)NC(=O)[C@H](CCCCN)NC(=O)[C@H](CSSC[C@H](NC(=O)[C@@H](N)CCC(=O)O)C(=O)N[C@@H](CC(C)C)C(=O)N[C@@H](CCC(=O)O)C(=O)N[C@@H]([C@@H](C)CC)C(=O)N[C@@H](Cc4ccccc4)C(=O)N[C@@H](CCCCN)C(=O)N[C@@H](C)C(=O)N3)NC2=O)C(=O)N[C@@H](CO)C(=O)N[C@@H](CCCNC(=N)N)C(=O)N[C@@H](CCCCN)C(=O)N[C@@H]([C@@H](C)O)C(=O)N[C@@H](CCCNC(=N)N)C(=O)N[C@@H](Cc2c[nH]c3ccccc23)C(=O)N1)C(=O)NCC(=O)O` [HwTx-IV^G36(acid)] it was 190 nM and 195 nM; in that of `CC[C@H](C)[C@H](NC(=O)[C@H](CCC(N)=O)NC(=O)[C@H](Cc1ccc(O)cc1)NC(=O)[C@H](CCCCN)NC(=O)[C@@H]1CSSC[C@@H]2NC(=O)[C@H](CCC(N)=O)NC(=O)[C@H](CC(=O)O)NC(=O)[C@H](CC(N)=O)NC(=O)[C@H](CO)NC(=O)[C@@H]3CCCN3C(=O)[C@H](CC(N)=O)NC(=O)[C@@H]3CSSC[C@H](NC(=O)[C@H](C(C)C)NC(=O)[C@H](CC(C)C)NC(=O)[C@H](CCCCN)NC(=O)[C@H](CO)NC(=O)[C@H](CO)NC(=O)[C@H](CCCCN)NC(=O)[C@H](CSSC[C@H](NC(=O)[C@@H](N)CCC(=O)O)C(=O)N[C@@H](CC(C)C)C(=O)N[C@@H](CCC(=O)O)C(=O)N[C@@H]([C@@H](C)CC)C(=O)N[C@@H](Cc4ccccc4)C(=O)N[C@@H](CCCCN)C(=O)N[C@@H](C)C(=O)N3)NC2=O)C(=O)N[C@@H](CO)C(=O)N[C@@H](CCCNC(=N)N)C(=O)N[C@@H](CCCCN)C(=O)N[C@@H]([C@@H](C)O)C(=O)N[C@@H](CCCNC(=N)N)C(=O)N[C@@H](Cc2c[nH]c3ccccc23)C(=O)N1)C(=O)NCC(N)=O` [HwTx-IV^G36(amide)], 33 ± 9 nM.
